From publication PMC7044277 (Nature Communications, 2020)
Values joined by “and” are separate entries in the source; they are usually repeats but may differ in a detail not shown here. Identical values can stand only once.

Tests used:
5HT4 = target: T1, 5HT4 (Homo sapiens, UniProt Q13639); test: β-arrestin2 recruitment (Tango); type: cell-based; details: Fig_S10n; for β-arrestin2 recruitment response (dose-response source data, replicate values): drug alone; for β-arrestin2 recruitment response in presence of serotonin (replicate values): +10μM serotonin
T1 construct: expressed in transfected cells; host or cells: HTLA cells expressing TEV-fused β-arrestin2
T1 sequence (Q13639 whole entry, the tested form may be a part): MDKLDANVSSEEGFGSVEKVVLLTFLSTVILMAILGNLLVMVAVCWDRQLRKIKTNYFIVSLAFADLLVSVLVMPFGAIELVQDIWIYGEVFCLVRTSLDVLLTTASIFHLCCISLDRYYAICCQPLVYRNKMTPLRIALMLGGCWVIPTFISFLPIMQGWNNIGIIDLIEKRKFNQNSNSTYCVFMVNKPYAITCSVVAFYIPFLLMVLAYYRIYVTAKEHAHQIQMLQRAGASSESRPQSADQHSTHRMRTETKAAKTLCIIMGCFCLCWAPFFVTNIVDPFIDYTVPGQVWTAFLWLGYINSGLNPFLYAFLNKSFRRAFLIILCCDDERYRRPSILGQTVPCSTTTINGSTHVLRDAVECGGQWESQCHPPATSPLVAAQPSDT

320 non-olfactory GPCRs = type: cell-based; details: compound at 1 μM
[1] = test system: serotonin receptor of Fig_S10h (subtype not given); test: β-arrestin2 recruitment (Tango), agonist activity, source data Fig_S10h; type: cell-based, human; details: drug alone
DRD2 F1103.28A = DRD2 F1103.28A (Homo sapiens, UniProt P14416, F110A); type: binding; design: expressed in transfected cells; host or cells: HEK293T (ATCC CRL-11268); details: DRD2 F1103.28A; read-out: Ki
Sequence of DRD2 F1103.28A (P14416 whole entry F110A): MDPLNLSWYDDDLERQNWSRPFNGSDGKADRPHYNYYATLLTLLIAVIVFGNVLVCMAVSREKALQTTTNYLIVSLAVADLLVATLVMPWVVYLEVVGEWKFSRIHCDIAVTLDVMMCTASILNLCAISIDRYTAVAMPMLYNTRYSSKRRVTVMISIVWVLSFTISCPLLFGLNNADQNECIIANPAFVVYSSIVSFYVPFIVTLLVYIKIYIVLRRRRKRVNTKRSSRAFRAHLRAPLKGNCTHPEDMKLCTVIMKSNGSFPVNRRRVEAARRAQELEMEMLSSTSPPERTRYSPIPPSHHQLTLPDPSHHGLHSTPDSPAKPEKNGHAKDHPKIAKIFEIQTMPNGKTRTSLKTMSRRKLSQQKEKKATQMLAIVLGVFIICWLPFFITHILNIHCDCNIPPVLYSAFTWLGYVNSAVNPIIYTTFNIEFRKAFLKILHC

## CCOc1cccc2cc([C@H](C)NCC3(O)CCCCC3)oc12 [O4SE6]
5HT4; Log[Drug] -8
  β-arrestin2 recruitment response (dose-response source data, replicate values): 1.665 and 0.2788 and 1.143 and 1.476 and 0.7729 and 1.19 and -0.1116 and -0.1148 and 0.2053
5HT4; Log[Drug] -8.52
  β-arrestin2 recruitment response in presence of serotonin (replicate values): 63.0325 and 66.617 and 68.5815 and 61.4979 and 62.8385 and 69.3531 and 69.1189 and 65.2821 and 54.9164
  β-arrestin2 recruitment response (dose-response source data, replicate values): 2.264 and 0.3266 and 1.143 (2×) and 0.899 and 0.9417 and -0.211 and 0.2724 and 0.6928
5HT4; Log[Drug] -9
  β-arrestin2 recruitment response in presence of serotonin (replicate values): 58.3354 and 69.9419 and 59.2835 and 65.9 and 67.9417 and 62.0583 and 73.9242 and 95.122 and 58.9489
  β-arrestin2 recruitment response (dose-response source data, replicate values): 0.7979 and 0.203 and 1.266 and 0.9417 and 1.353 and 2.815 and 0.5659 and 0.7244 and 0.2029
5HT4; Log[Drug] -9.52
  β-arrestin2 recruitment response in presence of serotonin (replicate values): 62.0248 and 69.3453 and 57.8541 and 56.9479 and 71.0625 and 61.8156 and 76.4214 and 67.9653 and 74.0649
  β-arrestin2 recruitment response (dose-response source data, replicate values): 0.3303 and 1.247 and 2.286 and 1.442 and 0.7292 and 1.103 and 0.01536 and 0.2716 and 0.5247
5HT4; Log[Drug] -10
  β-arrestin2 recruitment response in presence of serotonin (replicate values): 55.5618 and 63.9322 and 63.2088 and 69.7104 and 76.0792 and 67.2 and 78.0601 and 69.8546 and 82.4903
  β-arrestin2 recruitment response (dose-response source data, replicate values): 0.4781 and 0.7712 and 1.0661 and 1.899 and 1.272 and 1.189 and -0.1148 and 0.1124 and 0.5271
5HT4; Log[Drug] -10.52
  β-arrestin2 recruitment response in presence of serotonin (replicate values): 62.9859 and 78.1652 and 74.7819 and 66.7635 and 61.4146 and 52.4937 and 74.1336 and 65.8957 and 89.463
  β-arrestin2 recruitment response (dose-response source data, replicate values): 1.621 and 1.692 and 0.9661 and 0.6417 and 1.106 and 1.144 and 0.4066 and -0.08327 and 0.2078
5HT4; Log[Drug] -11
  β-arrestin2 recruitment response in presence of serotonin (replicate values): 82.0434 and 83.1157 and 82.0887 and 77.05 and 73.7271 and 49.1812 and 80.7368 and 81.7578 and 70.7931
  β-arrestin2 recruitment response (dose-response source data, replicate values): 0.3285 and 0.5731 and 1.621 and 1.898 and 1.603 and 0.8979 and -0.2789 and 0.3428 and 0.1099
5HT4; Log[Drug] -11.52
  β-arrestin2 recruitment response in presence of serotonin (replicate values): 82.4482 and 79.2239 and 74.7068 and 70.1292 and 64.8323 and 73.1583 and 68.2329 and 84.5356 and 79.3843
  β-arrestin2 recruitment response (dose-response source data, replicate values): 0.3061 and 0.7799 and 0.4241 and 1.31 and 1.564 and 0.9802 and 0.3743 and -0.1811 and 0.5651
5HT4; Log[Drug] -12
  β-arrestin2 recruitment response in presence of serotonin (replicate values): 88.7057 and 105.09 and 99.6448 and 69.9375 and 73.7219 and 66.8948 and 92.7613 and 90.5301 and 90.978
  β-arrestin2 recruitment response (dose-response source data, replicate values): 1.557 and 0.8835 and 0.5619 and 0.6979 and 1.198 and 1.239 and 0.08246 and 0.08488 and 0.4382
320 non-olfactory GPCRs
  agonism across 320 nonolfactory GPCRs: only DRD2 activity was observed
[1]; Log[Drug] -6.52
  response, single replicates of the concentration-response curve: -7.994
[1]; Log[Drug] -7
  response, single replicates of the concentration-response curve: -2.807 and 4.395 and 8.664 and 27.4134 and 13.2513 and 15.6474 and 13.1242 and -2.417 and -10.8222
[1]; Log[Drug] -7.52
  response, single replicates of the concentration-response curve: 4.715 and -8.828 and -5.606 and 8.395 and 8.216 and 0.5126 and 3.51 and 4.446 and -3.1317
[1]; Log[Drug] -8
  response, single replicates of the concentration-response curve: 0.3826 and 12.2654 and 8.146 and 2.179 and 0.2337 and 9.5034 and -12.0593 and 26.3744 and -3.5174
[1]; Log[Drug] -8.52
  response, single replicates of the concentration-response curve: -10.0653 and -1.2658 and 52.2148 and 23.8014 and -4.094 and -12.033 and 16.826 and 7.508 and 15.8147
[1]; Log[Drug] -9
  response, single replicates of the concentration-response curve: 1.557 and 9.933 and -1.226 and 2.422 and 13.6662 and 4.675 and -4.947 and 1.153 and 3.825
[1]; Log[Drug] -9.52
  response, single replicates of the concentration-response curve: -5.148 and -10.9982 and -7.97 and 11.3845 and 16.9421 and 5.655 and -4.275 and -6.8476 and 18.2512
[1]; Log[Drug] -10
  response, single replicates of the concentration-response curve: 15.0958 and 7.486 and 10.8542 and 5.527 and 29.223 and 0.999 and -10.921 and 11.0828 and -0.8457
[1]; Log[Drug] -10.52
  response, single replicates of the concentration-response curve: -0.8745 and -6.646 and -1.622 and 20.5398 and 42.3766 and 10.7909 and -7.069 and -20.3001 and 10.2879
[1]; Log[Drug] -11
  response, single replicates of the concentration-response curve: -11.3698 and 19.5825 and 1.391 and 36.9549 and 6.363 and -10.581 and 12.6585 and -12.9389 and 3.331
[1]; Log[Drug] -11.52
  response, single replicates of the concentration-response curve: -4.741 and 3.94 and 12.3959 and 19.2666 and -9.551 and -8.707 and 10.8288 and -0.4553 and -7.722
[1]; Log[Drug] -12
  response, single replicates of the concentration-response curve: -3.8669 and -1.214 and 2.909 and 15.2183 and 14.2098 and -8.421 and -4.75 and -12.1063 and 12.6538
DRD2 F1103.28A
  Ki: 520 nM
